Laboratory results: ChEMBL document CHEMBL5325499, “Rational Design and Development of Selective BRD7 Bromodomain Inhibitors and Their Activity in Prostate Cancer” (J Med Chem, 2023)
Activity calls are given as the source filed them. No cut-off for these calls is given here.

Legend:
Homo sapiens [1] = organism: Homo sapiens; experiment: Binding affinity to His TEV-tagged human recombinant BRPF1B expressed in Escherichia coli BL21(DE3) assessed as protein stabilization by measuring increase in melting temperature at 1 uM measured for 120 mins by differential scanning fluorimetry
[2] = target: T1, Bromodomain-containing protein 7 (Homo sapiens, UniProt Q9NPI1); experiment: Displacement of NanoBRET BRD Tracer-02 from Nanoluc-fused BRD7 bromodomain (unknown origin) expressed in HEK293T cells incubated for 2 hrs by NanoBRET assay; format: cell-based
T1 sequence (Q9NPI1 whole entry): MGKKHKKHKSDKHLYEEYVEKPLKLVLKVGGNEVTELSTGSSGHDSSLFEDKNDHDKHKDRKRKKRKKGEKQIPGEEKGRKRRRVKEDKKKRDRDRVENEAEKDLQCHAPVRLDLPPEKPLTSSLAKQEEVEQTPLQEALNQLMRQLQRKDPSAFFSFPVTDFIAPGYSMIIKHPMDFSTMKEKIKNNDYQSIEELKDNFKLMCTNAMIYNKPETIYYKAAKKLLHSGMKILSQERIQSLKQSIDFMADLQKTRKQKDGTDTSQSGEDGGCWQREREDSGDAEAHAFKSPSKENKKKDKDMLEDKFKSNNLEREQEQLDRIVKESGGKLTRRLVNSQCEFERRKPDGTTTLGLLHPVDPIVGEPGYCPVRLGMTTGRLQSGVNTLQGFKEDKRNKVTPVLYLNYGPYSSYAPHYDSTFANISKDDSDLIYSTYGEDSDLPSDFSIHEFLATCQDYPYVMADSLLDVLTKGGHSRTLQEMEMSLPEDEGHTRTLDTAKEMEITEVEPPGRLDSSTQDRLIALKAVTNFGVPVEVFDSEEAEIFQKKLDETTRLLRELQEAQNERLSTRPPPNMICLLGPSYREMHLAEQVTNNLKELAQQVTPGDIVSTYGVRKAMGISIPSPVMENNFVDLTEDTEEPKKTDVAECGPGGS

[3] = target: T2, Bromodomain-containing protein 9 (Homo sapiens, UniProt Q9H8M2); experiment: Displacement of NanoBRET BRD Tracer-02 from Nanoluc-fused BRD9 bromodomain (unknown origin) expressed in HEK293T cells incubated for 2 hrs by NanoBRET assay; format: cell-based
T2 sequence (Q9H8M2 whole entry): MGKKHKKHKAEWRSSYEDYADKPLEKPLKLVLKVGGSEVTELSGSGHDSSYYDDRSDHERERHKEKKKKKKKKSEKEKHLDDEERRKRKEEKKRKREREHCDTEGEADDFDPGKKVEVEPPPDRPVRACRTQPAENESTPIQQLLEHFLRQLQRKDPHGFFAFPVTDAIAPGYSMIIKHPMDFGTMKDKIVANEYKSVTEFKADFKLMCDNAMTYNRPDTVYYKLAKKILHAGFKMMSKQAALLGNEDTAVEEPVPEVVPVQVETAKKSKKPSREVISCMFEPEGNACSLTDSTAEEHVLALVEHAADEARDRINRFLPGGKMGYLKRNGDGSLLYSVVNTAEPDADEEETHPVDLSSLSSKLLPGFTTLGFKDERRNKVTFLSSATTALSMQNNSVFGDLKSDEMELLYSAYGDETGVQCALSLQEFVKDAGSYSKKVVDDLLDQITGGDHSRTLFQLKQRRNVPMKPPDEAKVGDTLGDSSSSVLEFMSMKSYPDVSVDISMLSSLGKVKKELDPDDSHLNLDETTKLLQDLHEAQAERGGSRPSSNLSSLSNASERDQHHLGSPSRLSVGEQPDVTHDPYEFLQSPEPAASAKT

[4] = target: T2, Bromodomain-containing protein 9; experiment: Displacement of FAM-labeled BI-FAMb from N-terminal His TEV-tagged human recombinant BRD9 bromodomain expressed in Escherichia coli BL21(DE3) by competitive fluorescence polarization assay
[5] = target: T1, Bromodomain-containing protein 7; experiment: Displacement of FAM-labeled BI-FAMb from N-terminal His TEV-tagged human recombinant BRD7 bromodomain expressed in Escherichia coli BL21(DE3) by competitive fluorescence polarization assay
[6] = Selectivity ratio of IC50 for antiproliferative activity against human AR-negative PC-3 cells to IC50 for antiproliferative activity against human AR-positive LNCaP cells; format: functional
[7] = Selectivity ratio of IC50 for antiproliferative activity against human AR-negative PC-3 cells to IC50 for antiproliferative activity against human AR-positive C-42 cells; format: functional
PC-3 [8] = experiment: Antiproliferative activity against AR-negative human PC-3 cells assessed as inhibition of cell growth at 5 uM incubated for 4 days by CellTiter-Glo luminescent assay; format: functional, cell-based; details: time 4.0 day
[9] = target: T3, Bromodomain-containing protein 9 (Homo sapiens) (UniProt Q9H8M2); experiment: Inhibition of human partial length BRD9 bromodomain (130 to 259 residues) expressed in bacterial expression system at 2 uM by BROMOscan analysis
T3 sequence (whole entry): T2 sequence (Q9H8M2 whole entry)

CWR22R [10] = experiment: Antiproliferative activity against human 22Rv1 cells transfected with empty vector assessed as inhibition of cell growth at 5 uM measured after 4 days by CellTiter-Glo luminescent assay; format: functional; set-up: scale not given: the % may be the effect or the level left; details: time 4 day
[11] = target: T4, Bromodomain-containing protein 7 (Homo sapiens) (UniProt Q9NPI1); experiment: Inhibition of human partial length BRD7 bromodomain (125 to 254 residues) expressed in mammalian expression system at 2 uM by BROMOscan analysis
T4 sequence (whole entry): T1 sequence (Q9NPI1 whole entry)

[12] = target: T1, Bromodomain-containing protein 7; experiment: Binding affinity to N-terminal His TEV-tagged human recombinant BRD7 bromodomain expressed in Escherichia coli BL21(DE3) by microscale thermophoresis assay
[13] = target: T1, Bromodomain-containing protein 7; experiment: Binding affinity to human partial length BRD7 bromodomain (125 to 254 residues) expressed in mammalian expression system by BROMOscan KdELECT analysis
[14] = target: T3, Bromodomain-containing protein 9 (Homo sapiens); experiment: Inhibition of BRD9 binding to chromatin in HEK293T cells at 10 uM incubated for 24 hrs by immunoblot analysis; format: cell-based
[15] = target: T2, Bromodomain-containing protein 9; experiment: Binding affinity to human partial length BRD9 bromodomain (130 to 259 residues) expressed in bacterial expression system by BROMOscan KdELECT analysis
CWR22R [16] = experiment: Antiproliferative activity against human 22Rv1 cells transfected with empty vector assessed as inhibition of cell growth at 2.5 uM measured after 4 days by CellTiter-Glo luminescent assay; format: functional; set-up: scale not given: the % may be the effect or the level left; details: time 4 day
[17] = target: T3, Bromodomain-containing protein 9 (Homo sapiens); experiment: Binding affinity to N-terminal His TEV-tagged human recombinant BRD9 bromodomain expressed in Escherichia coli BL21(DE3) by microscale thermophoresis assay
cells = details: Homo sapiens, HEK-293T, 2 h
Description: Displacement of NanoBRET BRD Tracer-02 from Nanoluc-fused BRPF1B bromodomain (unknown origin) expressed in HEK293T cells incubated for 2 hrs by NanoBRET assay

Homo sapiens [18] = organism: Homo sapiens; experiment: Binding affinity to His TEV-tagged human recombinant BRPF1B expressed in Escherichia coli BL21(DE3) assessed as protein stabilization by measuring increase in melting temperature at 25 uM measured for 120 mins by differential scanning fluorimetry
LNCaP = experiment: Antiproliferative activity against AR-positive human LNCaP cells assessed as inhibition of cell growth at 1 uM measured after 4 days by CellTiter-Glo luminescent assay; format: functional, cell-based; details: time 4.0 day
CWR22R [19] = experiment: Antiproliferative activity against human 22Rv1 cells transfected with shBRD7-1 assessed as inhibition of cell growth at 2.5 uM measured after 4 days by CellTiter-Glo luminescent assay; format: functional; set-up: scale not given: the % may be the effect or the level left; details: time 4 day
CWR22R [20] = experiment: Antiproliferative activity against human 22Rv1 cells transfected with shBRD7-1 assessed as inhibition of cell growth at 5 uM measured after 4 days by CellTiter-Glo luminescent assay; format: functional; set-up: scale not given: the % may be the effect or the level left; details: time 4 day
CWR22R [21] = experiment: Antiproliferative activity against human 22Rv1 cells transfected with shBRD7-2 assessed as inhibition of cell growth at 2.5 uM measured after 4 days by CellTiter-Glo luminescent assay; format: functional; set-up: scale not given: the % may be the effect or the level left; details: time 4 day
PC-3 [22] = experiment: Antiproliferative activity against AR-negative human PC-3 cells assessed as inhibition of cell growth at 1 uM measured after 4 days by CellTiter-Glo luminescent assay; format: functional, cell-based; details: time 4.0 day
CWR22R [23] = experiment: Antiproliferative activity against human 22Rv1 cells transfected with shBRD7-2 assessed as inhibition of cell growth at 5 uM measured after 4 days by CellTiter-Glo luminescent assay; format: functional; set-up: scale not given: the % may be the effect or the level left; details: time 4 day

| SMILES | IC50 [4] [nM] | Ki [4] [nM] | IC50 [5] [nM] | Ki [5] [nM] | inhibition [9] | inhibition [11] | IC50 ([2]; read-out: IC50) [nM] | Kd [12] [nM] | Kd [13] [nM] | inhibition [14] | Kd [15] [nM] | IC50 ([3]; read-out: IC50) [nM] | Activity [17] | IC50 (cells) [nM] | Ratio IC50 [6] | Ratio IC50 [7] | Activity (PC-3 [8]) | Activity (CWR22R [10]) [%] | Activity (CWR22R [16]) [%] | other results |
| --- | --- | --- | --- | --- | --- | --- | --- | --- | --- | --- | --- | --- | --- | --- | --- | --- | --- | --- | --- | --- |
| COc1ccccc1C(=O)Nc1cc2c(cc1N1CCCCC1)n(C)c(=O)n2C | – | – | – | – | – | – | – | – | – | – | – | – | – | – | – | – | – | – | – | Activity (Homo sapiens [1]): Active; IC50 ([2]; hek293t): Not Active; IC50 ([3]; hek293t): Not Active |
| COc1ccc(-c2ccc3c(C)cc(=O)n(C)c3c2)c(C)n1 | 2700 | 230 | 1600 | 170 | inactive | Active | 850 | 1200 | 290 | inactive | 650 | 3300 | inactive | 2800 | 3 | 3 | Active | 52 | 26 | Activity (Homo sapiens [18]): Active |
| CCn1cc(-c2cccc(C(F)(F)F)c2)c2sc(C(=N)NC3CCS(=O)(=O)CC3)cc2c1=O | – | – | – | – | – | – | – | – | – | Active | – | – | – | – | – | – | – | – | – | – |
| Cc1cc(C)cc(-c2cn(C)c(=O)c3ccccc23)c1 | 4000 | 340 | 8100 | 860 | – | – | – | – | – | – | – | – | – | – | – | – | – | – | – | – |

Now from value to compound, other results behind:

| IC50 [4] [nM] | Ki [4] [nM] | IC50 [5] [nM] | Ki [5] [nM] | inhibition [9] | inhibition [11] | IC50 ([2]; read-out: IC50) [nM] | Kd [12] [nM] | Kd [13] [nM] | inhibition [14] | Kd [15] [nM] | IC50 ([3]; read-out: IC50) [nM] | Activity [17] | IC50 (cells) [nM] | SMILES | Ratio IC50 [6] | Ratio IC50 [7] | Activity (PC-3 [8]) | Activity (CWR22R [10]) [%] | Activity (CWR22R [16]) [%] | other results |
| --- | --- | --- | --- | --- | --- | --- | --- | --- | --- | --- | --- | --- | --- | --- | --- | --- | --- | --- | --- | --- |
| 1500 | 130 | 2900 | 310 | – | – | – | – | – | – | – | – | – | – | COc1ccc(-c2cn(C)c(=O)c3ccccc23)c(OC)n1 | – | – | – | – | – | – |
| > 300000 | > 20000 | 5400 | 1300 | inactive | Active | 1100 | 2200 | 340 | inactive | 655 | 3200 | inactive | > 10000 | COc1ccc(-c2ccc3c(C)cc(=O)n(C)c3c2)c(OC)n1 | 3 | 3 | Active | 73 | 41 | Activity (LNCaP): Active; Activity (CWR22R [19]): 13%; Activity (CWR22R [20]): 28%; Activity (CWR22R [21]): 22%; Activity (PC-3 [22]): inactive; Activity (CWR22R [23]): 38% |
